According to US12077503B2, “Substituted cyclic amides and their use as herbicides” (FMC CORPORATION, priority 2015, dated 2024):

Columns and labels:
Type in all cases: in vivo
[1] = test system: ryegrass, Italian (Italian ryegrass, Lolium multiflorum); test: Test A postemergence; settings: Lolium multiflorum, post-emergence, 240 h, postemergence, approx. 10 d
Outline: (§1)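 Greenhouse, ~10 d after spray; visual injury vs untreated controls, 0 = no effect, 100 = complete control. Preemergence: directed soil spray over planted seeds. Postemergence: plants 2–10 cm, 1–2 leaf stage. Loam/sand blend. Compound in non-phytotoxic solvent with surfactant.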

[2] = test system: blackgrass (Alopecurus myosuroides); test: Test A postemergence; settings: Alopecurus myosuroides, post-emergence, 240 h, read-out: Plant response rating, Blackgrass
Outline: as §1

[3] = test system: giant foxtail (Setaria faberii); test: Test A postemergence; settings: Setaria faberi, post-emergence, 240 h, postemergence, approx. 10 d
Outline: as §1

[4] = test system: ragweed (common ragweed, Ambrosia elatior); test: Test A postemergence; settings: Ambrosia artemisiifolia, post-emergence, 240 h, postemergence, approx. 10 d
Outline: as §1

[5] = test system: pigweed (Amaranthus retroflexus); test: Test A postemergence; settings: Amaranthus retroflexus, post-emergence, 240 h, postemergence, approx. 10 d
Outline: as §1

Kochia (Kochia scoparia) [6] = test: Test A postemergence; settings: Bassia scoparia, post-emergence, 240 h, postemergence, approx. 10 d
Outline: as §1

[7] = test system: Galium (catchweed bedstraw, Galium aparine); test: Test A postemergence; settings: Galium, post-emergence, 240 h, postemergence, approx. 10 d
Outline: as §1

corn (Zea mays) = test: Test A postemergence; settings: Zea mays, post-emergence, 240 h
Outline: as §1

[8] = test system: barnyardgrass (Echinochloa crus-galli); test: Test A postemergence; settings: Echinochloa crus-galli, post-emergence, 240 h, read-out: Plant response rating, Barnyardgrass
Outline: as §1

[9] = test system: wheat (Triticum aestivum); test: Test A postemergence; settings: Triticum aestivum, post-emergence, 240 h, postemergence, approx. 10 d
Outline: as §1

[10] = test system: ryegrass, Italian (Italian ryegrass, Lolium multiflorum); test: Test A preemergence; settings: Lolium multiflorum, pre-emergence, 240 h
Outline: as §1

[11] = test system: giant foxtail (Setaria faberii); test: Test A preemergence; settings: Setaria faberi, pre-emergence, 240 h
Outline: as §1

[12] = test system: ragweed (common ragweed, Ambrosia elatior); test: Test A preemergence; settings: Ambrosia artemisiifolia, pre-emergence, 240 h
Outline: as §1

[13] = test system: pigweed (Amaranthus retroflexus); test: Test A preemergence; settings: Amaranthus retroflexus, pre-emergence, 240 h
Kochia (Kochia scoparia) [14] = test: Test A preemergence; settings: Bassia scoparia, pre-emergence, 240 h
Outline: as §1

[15] = test system: barnyardgrass (Echinochloa crus-galli); test: Test A preemergence; settings: Echinochloa crus-galli, pre-emergence, 240 h
Outline: as §1

[16] = 125 g ai/ha, Postemergence, visual injury after approximately 10 d, 0 to 100 scale where 0 is no effect and 100 is complete control
[17] = 500 g ai/ha, postemergence, visual injury, 0 to 100 scale (0 no effect, 100 complete control), approx. 10 d

CC(C)COc1cccc([C@H]2CN(C)C(=O)[C@@H]2C(=O)Nc2cccc(F)c2F)c1 [Compound 1029]
pest or weed control at 125 g/ha ([1]; 125 g ai/ha, visual injury on 0 to 100 scale (0 no effect, 100 complete control), read-out: Ryegrass, Italian plant response rating): 0% | pest or weed control at 500 g/ha ([1]; 500 g ai/ha, visual injury, 0 to 100 scale (0 no effect, 100 complete control), read-out: Plant response rating, Ryegrass, Italian): 40% | pest or weed control at 125 g/ha [2, 16]: 30% | pest or weed control at 500 g/ha [2, 17]: 40% | pest or weed control at 125 g/ha ([3]; 125 g ai/ha, visual injury on 0 to 100 scale (0 no effect, 100 complete control), read-out: Foxtail, Giant plant response rating): 80% | pest or weed control at 500 g/ha ([3]; 500 g ai/ha, visual injury, 0 to 100 scale (0 no effect, 100 complete control), read-out: Plant response rating, Foxtail, Giant): 90% | pest or weed control at 125 g/ha ([4]; 125 g ai/ha, visual injury on 0 to 100 scale (0 no effect, 100 complete control), read-out: Ragweed plant response rating): 0% | pest or weed control at 500 g/ha ([4]; 500 g ai/ha, visual injury, 0 to 100 scale (0 no effect, 100 complete control), read-out: Plant response rating, Ragweed): 0% | pest or weed control at 125 g/ha ([5]; 125 g ai/ha, visual injury on 0 to 100 scale (0 no effect, 100 complete control), read-out: Pigweed plant response rating): 0% | pest or weed control at 500 g/ha ([5]; 500 g ai/ha, visual injury, 0 to 100 scale (0 no effect, 100 complete control), read-out: Plant response rating, Pigweed): 0% | pest or weed control at 125 g/ha (Kochia (Kochia scoparia) [6]; 125 g ai/ha, visual injury on 0 to 100 scale (0 no effect, 100 complete control), read-out: Kochia plant response rating): 0% | pest or weed control at 500 g/ha (Kochia (Kochia scoparia) [6]; 500 g ai/ha, visual injury, 0 to 100 scale (0 no effect, 100 complete control), read-out: Plant response rating, Kochia): 0% | pest or weed control at 125 g/ha ([7]; 125 g ai/ha, visual injury on 0 to 100 scale (0 no effect, 100 complete control), read-out: Galium plant response rating): 20% | pest or weed control at 500 g/ha ([7]; 500 g ai/ha, visual injury, 0 to 100 scale (0 no effect, 100 complete control), read-out: Plant response rating, Galium): 40% | Corn plant response rating (crop injury, 0 = no effect, 100 = complete kill) at 125 g/ha (corn (Zea mays); [16]): 50% | Corn plant response rating (crop injury, 0 = no effect, 100 = complete kill) at 500 g/ha (corn (Zea mays); [17]): 70% | pest or weed control at 125 g/ha [8, 16]: 80% | pest or weed control at 500 g/ha [8, 17]: 90% | plant injury at 125 g/ha ([9]; 125 g ai/ha, visual injury on 0 to 100 scale (0 no effect, 100 complete control), read-out: Wheat plant response rating): 30% | plant injury at 500 g/ha ([9]; 500 g ai/ha, visual injury, 0 to 100 scale (0 no effect, 100 complete control), read-out: Plant response rating, Wheat): 60% | pest or weed control at 125 g/ha ([10]; 125 g ai/ha, Preemergence, visual injury rating after approximately 10 d, read-out: Ryegrass, Italian plant response rating (0 to 100 scale, 0 is no effect, 100 is complete control)): 70% | pest or weed control at 500 g/ha ([10]; 500 g ai/ha, preemergence, visual injury rating about 10 d after treatment, 0 to 100 scale (0 no effect, 100 complete control), read-out: Ryegrass, Italian plant response rating): 90% | pest or weed control at 125 g/ha ([11]; 125 g ai/ha, Preemergence, visual injury rating after approximately 10 d, read-out: Foxtail, Giant plant response rating (0 to 100 scale, 0 is no effect, 100 is complete control)): 90% | pest or weed control at 500 g/ha ([11]; 500 g ai/ha, preemergence, visual injury rating about 10 d after treatment, 0 to 100 scale (0 no effect, 100 complete control), read-out: Foxtail, Giant plant response rating): 90% | pest or weed control at 125 g/ha ([12]; 125 g ai/ha, Preemergence, visual injury rating after approximately 10 d, read-out: Ragweed plant response rating (0 to 100 scale, 0 is no effect, 100 is complete control)): 0% | pest or weed control at 500 g/ha ([12]; 500 g ai/ha, preemergence, visual injury rating about 10 d after treatment, 0 to 100 scale (0 no effect, 100 complete control), read-out: Ragweed plant response rating): 0% | pest or weed control at 125 g/ha ([13]; 125 g ai/ha, Preemergence, visual injury rating after approximately 10 d, read-out: Pigweed plant response rating (0 to 100 scale, 0 is no effect, 100 is complete control)): 0% | pest or weed control at 500 g/ha ([13]; 500 g ai/ha, preemergence, visual injury rating about 10 d after treatment, 0 to 100 scale (0 no effect, 100 complete control), read-out: Pigweed plant response rating): 0% | pest or weed control at 125 g/ha (Kochia (Kochia scoparia) [14]; 125 g ai/ha, Preemergence, visual injury rating after approximately 10 d, read-out: Kochia plant response rating (0 to 100 scale, 0 is no effect, 100 is complete control)): 0% | pest or weed control at 500 g/ha (Kochia (Kochia scoparia) [14]; 500 g ai/ha, preemergence, visual injury rating about 10 d after treatment, 0 to 100 scale (0 no effect, 100 complete control), read-out: Kochia plant response rating): 90% | pest or weed control at 125 g/ha ([15]; 125 g ai/ha, Preemergence, visual injury rating after approximately 10 d, read-out: Barnyardgrass plant response rating (0 to 100 scale, 0 is no effect, 100 is complete control)): 90% | pest or weed control at 500 g/ha ([15]; 500 g ai/ha, preemergence, visual injury rating about 10 d after treatment, 0 to 100 scale (0 no effect, 100 complete control), read-out: Barnyardgrass plant response rating): 90%
